pEC50: −log10 of the molar value. Bounds are passed on as bounds.

The text below walks through data of patent publication US12290513B2, “Therapeutic methods and compositions for treating movement disorders” (Vima Therapeutics, Inc., priority 2023, dated 2025).

Series [1] addresses human muscarinic receptor M1 (Homo sapiens, UniProt P11229). Briefly: cell-based. How it is done:
(§1) All cells used in the following experiments were clonal populations of Chinese Hamster Ovary (CHO) cells stably expressing the corresponding human muscarinic receptor, except for the M4 cell line, which was a population of CHO cells transiently transfected with the human M4 receptor. […] The procedure was as follows: • 1. Cells were thawed and cultured in cell culture medium (DMEM/F12 containing 10% FBS, 1× penicillin-streptomycin and 600 μg/ml hygromycin B) at 37° C. in 5% (v/v) CO2. • 2. One day before the assays, cells were detached using TrypLE™ and counted using a cell-counter. […] 12,000 cells/well were seeded in 30 μl/well culture medium in a 384-well cell plate and incubated overnight at 37C, 5% (v/v) CO2. • 4. On the assay day, 2× dye solution was prepared following the manual of the FLIPR® Calcium 6 Assay Kit: • i. The dye was diluted with assay buffer (20 mM HEPES in 1× HBSS, PH 7.4); • ii. Probenecid was added to a final concentration of 5 mM; • iii. […] were vortexed vigorously for 1-2 minutes. • 5. Medium was removed from the cell plate by flicking the cell plate on paper towels. • 6. 10 μl of assay buffer and 10 μl of 2× dye solution was added to each well of the cell plate. • 7. The cell plate was shaken on a plate shaker at 600 rpm for 2 minutes and incubated at 37° C. for 2 hours followed by an additional 15-minute incubation at 25° C. • 8. The test compounds were next prepared in assay buffer: • a. All compounds were diluted to the required concentration with DMSO and added to a 384-well compound plate; • b. All compounds were serially diluted; • 1. Starting with 10 mM concentration of each test compound, all samples were serially diluted in 3-fold dilutions. • 2. 90 nl/well of each compound was transferred from the source plate to a 384-well compound plate using an Echo liquid handler. • 3. 30 μl/well assay buffer was added to the compound plate; • c. The plates were mixed on a plate shaker for 2 mins; • 9. The cell plate, compound plate and pipette tips were placed in the FLIPR screening system and 10 μl of each compound was added to a well of the cell plate. • 10. Plates were read for 160 sec with 1 sec intervals to obtain the data in agonist mode, then kept at 25° C. in the dark for 30 min. • 11.

The target in series [2] is human muscarinic receptor M3 (Homo sapiens, UniProt P20309). Nature of the series: cell-based. How it is done: as §1
Series [3] concerns the target T1, human muscarinic receptor M2 (Homo sapiens, UniProt P08172).
T1 construct: expressed in transfected cells
Briefly: Calcium flux assay (FLIPR), CHO cells expressing human M2. The following applies: agonist mode. It counts as cell-based. As to the method:
(§2) All cells used in the following experiments were clonal populations of Chinese Hamster Ovary (CHO) cells stably expressing the corresponding human muscarinic receptor, except for the M4 cell line, which was a population of CHO cells transiently transfected with the human M4 receptor. Muscarinic agonism and antagonism of each receptor was measured by a quantitative calcium flux assay that is used for multiple classes of G-protein-coupled receptors, or GPCRs, as described elsewhere (e.g., Arkin et al., […], PMID: 22553878). Acetylcholine and atropine were used as positive controls for receptor agonism and antagonism, respectively. The procedure was as follows: • 1. Cells were thawed and cultured in cell culture medium (DMEM/F12 containing 10% FBS, 1× penicillin-streptomycin and 600 μg/ml hygromycin B) at 37° C. in 5% (v/v) CO2. • 2. One day before the assays, cells were detached using TrypLE™ and counted using a cell-counter. Only cells with >85% viability are used for the assay. • 3. […] Plates were read for 160 sec with 1 sec intervals to obtain the data in agonist mode, then kept at 25° C. in the dark for 30 min. • 11. […] Plates were read for 160 sec with 1 sec intervals, thereby measuring the ability for test compounds to antagonize the activation of muscarinic receptors by Ach.
A general note: Calcium flux is commonly read through the fluorescence of an indicator in the cells.

The next series concerns the target T2, human M4 receptor (Homo sapiens, UniProt P08173).
T2 construct: expressed in transfected cells; host or cells: CHO (transient transfection)
Briefly: Calcium flux assay (FLIPR), CHO cells transiently transfected with human M4. The series is classed as cell-based. The following applies: agonist mode. As to the method: All cells used in the following experiments were clonal populations of Chinese Hamster Ovary (CHO) cells stably expressing the corresponding human muscarinic receptor, except for the M4 cell line, which was a population of CHO cells transiently transfected with the human M4 receptor. […] The procedure was as follows: • 1. Cells were thawed and cultured in cell culture medium (DMEM/F12 containing 10% FBS, 1× penicillin-streptomycin and 600 μg/ml hygromycin B) at 37° C. in 5% (v/v) CO2. • 2. One day before the assays, cells were detached using TrypLE™ and counted using a cell-counter. […] 12,000 cells/well were seeded in 30 μl/well culture medium in a 384-well cell plate and incubated overnight at 37C, 5% (v/v) CO2. • 4. On the assay day, 2× dye solution was prepared following the manual of the FLIPR® Calcium 6 Assay Kit: • i. The dye was diluted with assay buffer (20 mM HEPES in 1× HBSS, PH 7.4); • ii. Probenecid was added to a final concentration of 5 mM; • iii. Cells were vortexed vigorously for 1-2 minutes. • 5. Medium was removed from the cell plate by flicking the cell plate on paper towels. • 6. 10 μl of assay buffer and 10 μl of 2× dye solution was added to each well of the cell plate. • 7. […] Plates were read for 160 sec with 1 sec intervals to obtain the data in agonist mode, then kept at 25° C. in the dark for 30 min. • 11.

The target of series [4] is T3, human muscarinic receptor M5 (Homo sapiens, UniProt P08912).
T3 construct: expressed in transfected cells
Nature of the series: Calcium flux assay (FLIPR), CHO cells expressing human M5. The following applies: agonist mode. It counts as cell-based. As to the method:
as §2

For series [5], the system named is Cerep87 Safety Panel receptors. Briefly: Cerep87 Safety Panel (Eurofins), whole panel statements. The series is classed as binding. As to conditions: all receptors of the Cerep87 panel.
Another series deals with tear production. Nature of the series: THP-induced dry eye in dogs: tear production. As to conditions: oral, 2 mpk alone, 4 hours post administration. It counts as in vivo, Beagles.
The next series concerns dizziness. The following applies: humans; 3 mg THP immediate release at 0, 2, 4 hours versus 9 mg at once. How it is done:
Experimental Design: All of the data collected in this example were run in a double-blind, randomized, placebo controlled setting of normal healthy adults. […] Dizziness was measured by the visual analog scale (VAS), a common clinical measure of dizziness.

Sequence of human muscarinic receptor M3 (P20309 whole entry): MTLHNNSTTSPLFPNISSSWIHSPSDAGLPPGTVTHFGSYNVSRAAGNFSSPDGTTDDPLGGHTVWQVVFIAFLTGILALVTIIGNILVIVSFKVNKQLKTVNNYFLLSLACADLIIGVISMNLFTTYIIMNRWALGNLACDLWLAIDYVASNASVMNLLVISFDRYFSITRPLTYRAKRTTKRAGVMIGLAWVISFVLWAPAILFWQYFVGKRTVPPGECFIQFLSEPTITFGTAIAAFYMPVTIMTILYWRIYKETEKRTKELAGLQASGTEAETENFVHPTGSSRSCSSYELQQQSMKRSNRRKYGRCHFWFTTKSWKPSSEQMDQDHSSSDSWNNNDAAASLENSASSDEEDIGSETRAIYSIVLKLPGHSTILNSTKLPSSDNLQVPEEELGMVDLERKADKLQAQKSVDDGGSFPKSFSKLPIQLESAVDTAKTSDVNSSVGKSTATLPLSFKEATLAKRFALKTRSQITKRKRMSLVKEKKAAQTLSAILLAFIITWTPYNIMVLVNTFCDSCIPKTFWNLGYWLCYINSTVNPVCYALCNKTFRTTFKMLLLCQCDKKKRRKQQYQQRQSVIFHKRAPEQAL
T3 sequence (P08912 whole entry): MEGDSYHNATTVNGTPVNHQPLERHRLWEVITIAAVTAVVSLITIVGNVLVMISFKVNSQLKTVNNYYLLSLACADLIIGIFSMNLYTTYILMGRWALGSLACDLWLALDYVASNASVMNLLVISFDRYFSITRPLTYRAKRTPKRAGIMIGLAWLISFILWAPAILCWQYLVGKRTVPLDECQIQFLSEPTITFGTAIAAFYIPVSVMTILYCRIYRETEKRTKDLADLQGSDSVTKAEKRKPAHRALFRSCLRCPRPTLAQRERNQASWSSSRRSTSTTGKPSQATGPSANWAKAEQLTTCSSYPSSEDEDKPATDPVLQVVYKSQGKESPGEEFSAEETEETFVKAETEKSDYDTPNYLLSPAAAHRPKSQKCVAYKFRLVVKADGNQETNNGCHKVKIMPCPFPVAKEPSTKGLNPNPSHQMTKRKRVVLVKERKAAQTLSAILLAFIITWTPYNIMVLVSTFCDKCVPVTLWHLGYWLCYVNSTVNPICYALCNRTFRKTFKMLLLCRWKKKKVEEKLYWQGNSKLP
T2 sequence (P08173 whole entry): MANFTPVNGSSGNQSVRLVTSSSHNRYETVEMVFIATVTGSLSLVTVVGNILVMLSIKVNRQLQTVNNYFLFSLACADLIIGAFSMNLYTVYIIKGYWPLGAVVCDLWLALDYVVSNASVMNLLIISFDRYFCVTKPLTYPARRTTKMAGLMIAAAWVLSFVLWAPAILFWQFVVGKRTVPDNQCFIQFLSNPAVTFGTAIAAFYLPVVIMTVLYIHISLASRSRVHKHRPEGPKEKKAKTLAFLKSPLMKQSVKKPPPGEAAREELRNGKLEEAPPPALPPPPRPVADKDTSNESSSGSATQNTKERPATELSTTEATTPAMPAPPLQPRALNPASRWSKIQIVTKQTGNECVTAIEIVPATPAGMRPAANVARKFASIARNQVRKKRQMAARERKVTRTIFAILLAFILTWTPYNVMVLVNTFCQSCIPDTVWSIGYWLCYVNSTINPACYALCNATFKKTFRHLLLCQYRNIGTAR
Sequence of human muscarinic receptor M1 (P11229 whole entry): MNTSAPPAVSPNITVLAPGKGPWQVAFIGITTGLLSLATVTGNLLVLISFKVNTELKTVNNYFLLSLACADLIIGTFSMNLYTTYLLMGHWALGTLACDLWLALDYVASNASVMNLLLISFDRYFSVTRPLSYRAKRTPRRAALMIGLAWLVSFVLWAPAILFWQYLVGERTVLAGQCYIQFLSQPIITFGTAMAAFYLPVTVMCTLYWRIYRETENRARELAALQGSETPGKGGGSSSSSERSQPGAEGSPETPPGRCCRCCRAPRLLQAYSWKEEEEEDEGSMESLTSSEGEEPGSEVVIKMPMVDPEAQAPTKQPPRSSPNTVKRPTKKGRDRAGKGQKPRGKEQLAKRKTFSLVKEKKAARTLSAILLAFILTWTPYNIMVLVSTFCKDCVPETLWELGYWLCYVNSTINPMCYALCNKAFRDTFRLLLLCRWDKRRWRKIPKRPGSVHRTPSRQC
T1 sequence (P08172 whole entry): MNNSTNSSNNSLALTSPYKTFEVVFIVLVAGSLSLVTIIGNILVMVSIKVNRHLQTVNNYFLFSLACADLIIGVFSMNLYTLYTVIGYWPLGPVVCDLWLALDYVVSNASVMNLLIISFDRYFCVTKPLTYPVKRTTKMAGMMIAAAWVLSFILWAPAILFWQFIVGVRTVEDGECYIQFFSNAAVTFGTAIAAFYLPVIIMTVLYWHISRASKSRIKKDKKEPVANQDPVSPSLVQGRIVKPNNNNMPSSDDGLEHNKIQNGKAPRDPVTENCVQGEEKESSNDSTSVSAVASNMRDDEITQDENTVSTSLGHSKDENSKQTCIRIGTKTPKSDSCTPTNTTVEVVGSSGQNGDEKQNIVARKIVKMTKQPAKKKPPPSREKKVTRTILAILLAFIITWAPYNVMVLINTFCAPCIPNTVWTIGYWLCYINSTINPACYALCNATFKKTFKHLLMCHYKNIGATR

As to `C[C@H](C[N+](C)(C)C)OC(N)=O.[Cl-]` [(R)-BTC, (R)-bethanechol, reference compound], the negative logarithm of the EC50 (pEC50) – broadly, the negative decadic logarithm of the EC50, by convention in mol/L – was below 5.00 in series [1]; 5.12 in series [2]; below 5.00 in series [3]; below 5.00 at human M4 receptor; below 5.00 in series [4]. In addition, in series [5], the “signal at any receptor of the panel” value is below 50%.
On to `OC(CCN1CCCCC1)(c1ccccc1)C1CCCCC1` (centres unmarked) [THP, trihexyphenidyl], for which, in the series with tear production, the “% Baseline tear production” value is reported as 89.1%. Besides, the “dizziness (VAS)” value in the series with dizziness is “significantly reduced dizziness”.
